Experimental data reported in ChEMBL document CHEMBL5584257, “Semisynthetic derivatives of the fungal metabolite eupenifeldin via targeting the tropolone hydroxy groups” (Bioorg Med Chem Lett, 2024).
≈ marks a conversion by molar mass, not a printed value.

Legend:
[1] = tested on: MDA-MB-435; assay: Cytotoxicity against human MDA-MB-435 cells treated for 72 hrs; assay type: functional, cell-based; conditions: MDA-MB-435, 72 h
[2] = Lipophilicity, logD of compound at pH 7.4; assay type: physicochemical; conditions: buffer
[3] = Relative solubility of compound by measuring ratio of solubility of compound to solubility of Eupenifeldin; assay type: physicochemical
[4] = tested on: OVCAR-3; assay: Cytotoxicity against human OVCAR-3 cells treated for 72 hrs; assay type: functional, cell-based; conditions: OVCAR-3, 72 h
[5] = Aqueous solubility of compound; assay type: physicochemical; conditions: buffer

| SMILES | logD ([2]; read-out: logD) | Ratio [3] | solubility [5] | logD [2] | IC50 [1] | IC50 [4] |
| --- | --- | --- | --- | --- | --- | --- |
| COCCOC(=O)Oc1cc2c(ccc1=O)C[C@H]1CC(C)(C)/C=C/C[C@]3(C)Oc4cc(OC(=O)OCCOC)c(=O)cc(C)c4C[C@H]3C[C@H](O)[C@@]1(C)O2 | 4.6 | 0.2 |  |  | 101 nM | > 250 nM |
| Cc1cc(=O)c(OCc2ccccc2)cc2c1C[C@H]1C[C@H](O)[C@@]3(C)Oc4cc(OCc5ccccc5)c(=O)ccc4C[C@H]3CC(C)(C)/C=C/C[C@]1(C)O2 | 7.5 | 2 10^-4No_unit |  |  | 97 nM | > 250 nM |
| CCN(CC)C(=O)Oc1cc2c(ccc1=O)C[C@H]1CC(C)(C)/C=C/C[C@]3(C)Oc4cc(OC(=O)N(CC)CC)c(=O)cc(C)c4C[C@H]3C[C@H](O)[C@@]1(C)O2 | 5.9 | 2 10^-2No_unit |  |  | > 250 nM | 189 nM |
| Cc1cc(=O)c(O)cc2c1C[C@H]1C[C@H](OC(=O)CCC(=O)O)[C@@]3(C)Oc4cc(O)c(=O)ccc4C[C@H]3CC(C)(C)/C=C/C[C@]1(C)O2 | 1 | 40 | 66.3 µg/mL (≈ 104 µM) |  | 441 nM | 157 nM |
| Cc1cc(=O)c(OC(=O)N(c2ccccc2)c2ccccc2)cc2c1C[C@H]1C[C@H](O)[C@@]3(C)Oc4cc(OC(=O)N(c5ccccc5)c5ccccc5)c(=O)ccc4C[C@H]3CC(C)(C)/C=C/C[C@]1(C)O2 |  |  |  | 9.8 | > 250 nM | 228 nM |
| CC(=O)O[C@H]1C(=O)[C@@]2(C)[C@H]([C@H](OC(=O)c3ccccc3)[C@]3(O)C[C@H](OC(=O)[C@H](O)[C@@H](NC(=O)c4ccccc4)c4ccccc4)C(C)=C1C3(C)C)[C@]1(OC(C)=O)CO[C@@H]1C[C@@H]2O [PACLITAXEL] |  |  |  |  |  | 0.1 nM |

Further lines, with some results ahead:

| logD ([2]; read-out: logD) | Ratio [3] | solubility [5] | logD [2] | SMILES | IC50 [1] | IC50 [4] |
| --- | --- | --- | --- | --- | --- | --- |
| 5.5 | 4 10^-2No_unit |  |  | CC(=O)Oc1cc2c(ccc1=O)C[C@H]1CC(C)(C)/C=C/C[C@]3(C)Oc4cc(OC(C)=O)c(=O)cc(C)c4C[C@H]3C[C@H](OC(C)=O)[C@@]1(C)O2 | 72 nM | 193 nM |
| 4.3 | 0.4 |  |  | COCCOC(=O)Oc1cc2c(c(C)cc1=O)C[C@H]1C[C@H](O)[C@@]3(C)Oc4cc(O)c(=O)ccc4C[C@H]3CC(C)(C)/C=C/C[C@]1(C)O2 | 31 nM | 76 nM |
| 5.3 | 5 10^-3No_unit |  |  | Cc1cc(=O)c(OC(=O)C2CC2)cc2c1C[C@H]1C[C@H](O)[C@@]3(C)Oc4cc(OC(=O)C5CC5)c(=O)ccc4C[C@H]3CC(C)(C)/C=C/C[C@]1(C)O2 | 77 nM | > 250 nM |
| 4.6 | 0.1 |  |  | CC(=O)Oc1cc2c(ccc1=O)C[C@H]1CC(C)(C)/C=C/C[C@]3(C)Oc4cc(OC(C)=O)c(=O)cc(C)c4C[C@H]3C[C@H](O)[C@@]1(C)O2 | 53 nM | > 250 nM |
| 6.9 | 6 10^-3No_unit |  |  | Cc1cc(=O)c(OC(=O)C(C)(C)C)cc2c1C[C@H]1C[C@H](O)[C@@]3(C)Oc4cc(OC(=O)C(C)(C)C)c(=O)ccc4C[C@H]3CC(C)(C)/C=C/C[C@]1(C)O2 | 80 nM | 141 nM |
